# Patent US10421784B2, “Cell penetrating peptides for intracellular delivery of molecules” (AADIGEN, LLC, priority 2012, dated 2019)
# pIC50, pKd: −log10 of the molar value. Read-outs that look alike come from different tables or passages of the source.
# Tests used:
# [1] = system: SKB3-HEK2 xenografted mice; assay: Survival after intravenous NANOPEP-9/doxorubicin; type: in vivo; conditions: free Doxo (20 mg/Kg), intravenous every 4 days
# Procedure: NANOPEP-9 peptides (VEPEP-9a, b, d, f variants) have been used for the delivery of doxorubicin in vivo. The potential of NANOPEP-9 to deliver doxorubicin in vivo was evaluated on SKB3-HEK2 xenografted mice. Doxorubicin was complexed with VEPEP-9 peptide at a molar ratio of 1/20 with NANOPEP-9a, NANOPEP-9f and NANOPEP-9a-PEG. The treatment was started 10 days after tumor inoculation and with 2 mg/kg and 10 mg/Kg doses of drug and injected every 4 days by systemic Intravenous administration and mice were monitored for survival (FIG. 15).
# MCF7 [2] = assay: Inhibition of cancer cell proliferation by delivered drugs; type: cell-based; conditions: Homo sapiens
# SKB3 = assay: as above; type: cell-based; conditions: drug complexed with VEPEP-9f at molar ratio 1/20, read-out: VEPEP-9f IC50
# [3] = Fluorescence titration, VEPEP-9/SHM binding
# Procedure: (§1) Fluorescence experiments were performed on a PTI spectrofluorimeter at 25° C. in a NaCl 154 mM buffer. Intrinsic Trp-fluorescence of VEPEP-9 was excited at 290 nm and emission spectrum was recorded between 310 and 400 nm, with a spectral band-pass of 2 and 8 nm for excitation and emission, respectively. FITC- or CY5-fluorescence of labelled-peptide or Oligonucleotide were excited at 492 nm and emission recorded between 500 and 580 nm. For VEPEP-9/peptide interaction, 0.5 μM of FITC-labelled peptide was titrated by increasing concentrations of VEPEP-9. For VEPEP-9/oligonucleotide interaction, 200 nM of FITC or CY5-labelled oligodeoxynucleotide (ODN) was titrated by increasing concentrations of VEPEP-9. All measurements were corrected for the dilution and curve fitting were performed by using Grafit software (Erithacus).
# Binding of small molecule cargoes has been investigated in detailed depending on the nature of the SHM. Several hydrophobic molecules have been used (Daunomycin, Paclitaxel, doxorubicin, porphyrin), as well as charged molecules (nucleotide, nucleoside and fluorescent dyes).
# HepG2 [4] = assay: Uptake of Cy-5 labelled small peptide (FACS); type: cell-based, Human
# Procedure: (§2) Adherent HS68 fibroblasts, HeLa, PC3, MCF-7, SCK3-Her2, PBMC cell lines (from American Type Culture Collection (ATCC)) were cultured in Dulbecco's Modified Eagle's Medium supplemented with 2 mM glutamine, 1% antibiotics (streptomycin 10,000 μg/ml, penicillin, 10,000 IU/ml) and 10% (w/v) foetal calf serum (FCS), at 37° C. in a humidified atmosphere containing 5% CO2. Stock solutions of VEPEP-9/peptide particles were prepared by complexing 1 μM peptide with VEPEP-9 peptides at a molar ratio of 1/20 for 30 min at 37° C. Lower concentrations of VEPEP-9-carrier/peptide (from 500 nM to 1 μM) were obtained by serial dilution of the stock complexes in PBS, in order to preserve the same VEPEP-9-carrier/peptide ratio. Stock solutions of VEPEP-9/siRNA particles were prepared by complexing 100 nM siRNA with VEPEP-9 peptides at a molar ratio of 1/20 for 30 min at 37° C. Lower concentrations of VEPEP-9/siRNA (from 20 nM to 0.125 nM) were obtained by serial dilution of the stock complexes in PBS, in order to preserve the same VEPEP-9/siRNA ratio. 150,000 cells seeded in a 35 mm dish the day prior transfection, were grown to 60% confluence and overlaid with 200 μl of preformed complexes, incubated for 3-5 min, then 400 μl of DMEM were added. After 30 min. incubation at 37° C., 1 ml of fresh DMEM containing 16% foetal calf serum (FCS) was added in order to reach a final FCS concentration of 10%, without removing the overlay of VEPEP-9/cargo complexes. Cells were returned to the incubator for 24 hrs. For cdk2 derived peptides, cell proliferation was monitored after 24 and 48 hrs. For siRNA targeting Cyclin B1, Cyclin B1 mRNA level was determined 24 hrs following transduction, using Quantigen (Pommies Inc.). Data reported are an average of 3 or 4 distinct experiments.
# (§3) VEPEP-9a, VEPEP-9c and VEPEP-9f have been used for the delivery of small peptides into different cell lines, including primary cell lines, stem cell lines and challenging cell lines. Cargoes uptake was monitored using fluorescence spectroscopy and FACS analysis. Fluorescently labelled peptides were visualized in the different cell lines using fluorescence microscopy or FACS sorting (Table 4). In most of the cell lines, the uptake of Cy-5 labelled peptide is more than 70% of the cells.
# CEM-SS [5] = assay: Uptake of Cy-5 labelled small peptide (FACS); type: cell-based, Human
# Procedure: as §2, §3
# Jurkat [6] = assay: Uptake of Cy-5 labelled small peptide (FACS); type: cell-based, Human
# Procedure: as §2, §3
# MT4 [7] = assay: Uptake of Cy-5 labelled small peptide (FACS); type: cell-based, Human
# Procedure: as §2, §3
# HS-68 [8] = assay: Uptake of Cy-5 labelled small peptide (FACS); type: cell-based, Human
# Procedure: as §2, §3
# MCF7 [9] = assay: Uptake of Cy-5 labelled small peptide (FACS); type: cell-based, Human
# Procedure: as §2, §3
# U2OS [10] = assay: Uptake of Cy-5 labelled small peptide (FACS); type: cell-based, Human
# Procedure: as §2, §3
# Hela [11] = assay: Uptake of Cy-5 labelled small peptide (FACS); type: cell-based, Human
# Procedure: as §2, §3
# STEM [12] = assay: Uptake of Cy-5 labelled PNA (FACS); type: cell-based, Mouse
# Excerpt: (§4) VEPEP-9 peptides have been used for the delivery of nucleic acid analogues (PNA and morpholino) into different cell lines, including primary cell lines and challenging cell lines. […] Uptake was monitored using fluorescence spectroscopy and following biological response (Cyclin B1 knockdown).
# (§5) Fluorescently labelled PNA was visualized in the different cell lines using fluorescence microscopy or FACS sorting (Table 5). In most of the cell lines, the uptake of Cy-5 labelled PNA is more than 60% of the cells.
# C2C12 [13] = assay: Uptake of Cy-5 labelled PNA (FACS); type: cell-based, Mouse
# Excerpt: as §4, §5
# MEF [14] = assay: Uptake of Cy-5 labelled PNA (FACS); type: cell-based, Mouse
# Excerpt: as §4, §5
# HepG2 [15] = assay: Uptake of Cy-5 labelled PNA (FACS); type: cell-based, Human
# Excerpt: as §4, §5
# CEM-SS [16] = assay: Uptake of Cy-5 labelled PNA (FACS); type: cell-based, Human
# Excerpt: as §4, §5
# Jurkat [17] = assay: Uptake of Cy-5 labelled PNA (FACS); type: cell-based, Human
# Excerpt: as §4, §5
# MT4 [18] = assay: Uptake of Cy-5 labelled PNA (FACS); type: cell-based, Human
# Excerpt: as §4, §5
# HS-68 [19] = assay: Uptake of Cy-5 labelled PNA (FACS); type: cell-based, Human
# Excerpt: as §4, §5
# MCF7 [20] = assay: Uptake of Cy-5 labelled PNA (FACS); type: cell-based, Human
# Excerpt: as §4, §5
# U2OS [21] = assay: Uptake of Cy-5 labelled PNA (FACS); type: cell-based, Human
# Excerpt: as §4, §5
# Hela [22] = assay: Uptake of Cy-5 labelled PNA (FACS); type: cell-based, Human
# Excerpt: as §4, §5
# STEM [23] = assay: Uptake of Cy-5 labelled small peptide (FACS); type: cell-based, Mouse
# Procedure: as §2, with “Cells were returned to the incubator for 24 hrs.” left out, “Data reported are an average of 3 or 4 distinct experiments.” left out
# as §3, with “In most of the cell lines, the uptake of Cy-5 labelled peptide is more than 70% of the cells.” left out
# C2C12 [24] = assay: Uptake of Cy-5 labelled small peptide (FACS); type: cell-based, Mouse
# Procedure: as §2, with “Cells were returned to the incubator for 24 hrs.” left out, “Data reported are an average of 3 or 4 distinct experiments.” left out
# as §3, with “In most of the cell lines, the uptake of Cy-5 labelled peptide is more than 70% of the cells.” left out
# MEF [25] = assay: Uptake of Cy-5 labelled small peptide (FACS); type: cell-based, Mouse
# Procedure: as §2, with “Cells were returned to the incubator for 24 hrs.” left out, “Data reported are an average of 3 or 4 distinct experiments.” left out
# as §3, with “In most of the cell lines, the uptake of Cy-5 labelled peptide is more than 70% of the cells.” left out
# [26] = Fluorescence titration, VEPEP-9/cargo binding; conditions: cargo SHM
# Procedure: as §1
# (§6) VEPEP-9 peptide form stable complexes with peptides and ODN. The binding of cargos to VEPEP-9 was monitored by fluorescence spectroscopy using the both intrinsic Trp group of VEPEP-9 (3 to 5 Trp-residues) and extrinsic fluorescently labelled cargoes (using Cy3, Cy5 or FITC). Curve fitting reveal that VEPEP-9 strongly binds the different cargoes with dissociation constant in the nanomolar range (Tables 1 and 2 and FIG. 2).
# (§7) VEPEP-9 peptides form stable particles with different cargoes including peptide, siRNA, PNA and small aromatic (FIG. 2). The dissociation constant for peptide, siRNA, PNA and small hydrophobic molecule ranges between 10-100 nM, 5-50 nM, 5-50 nM and 0.02 to 0.2 μM, respectively, depending on the nature of the dyes and of the cargoes.
# PNA (15 mer -PNA) = assay: Fluorescence titration, VEPEP-9/cargo binding; conditions: cargo PNA (15 mer)
# Procedure: as §1, §6, §7
# siRNA = assay: Fluorescence titration, VEPEP-9/cargo binding; conditions: cargo siRNA
# Procedure: as §1, §6, §7
# Peptide (C4) = assay: Fluorescence titration, VEPEP-9/cargo binding; conditions: cargo peptide (C4)
# Procedure: as §1, §6, §7
# cultured cells = assay: Cell cycle progression / cyclin B1 levels in cultured cells; type: cell-based; conditions: carrier alone (200 μM)
compound,measurement,setting,value
"COc1cccc2c1C(=O)c1c(O)c3c(c(O)c1C2=O)C[C@@](O)(C(=O)CO)C[C@@H]3O[C@H]1C[C@H](N)[C@H](O)[C@H](C)O1 [Doxo, doxorubicin]",survival time,[1],16 days
same,pIC50,"MCF7 [2]; drug complexed with VEPEP-9a at molar ratio 1/20, read-out: VEPEP-9a IC50",7.00
same,pIC50,"MCF7 [2]; drug complexed with VEPEP-9f at molar ratio 1/20, read-out: VEPEP-9f IC50",6.15
same,pIC50,"MCF7 [2]; drug complexed with VEPEP-9d at molar ratio 1/20, read-out: VEPEP-9d IC50",6.77
same,pIC50,SKB3,6.22
"X1WWRWWAPWARSWWR [VEPEP-9f, X1 is beta-A or S]",Binding,[3]; cargo AZT,No
same,Binding,[3]; cargo Doxorubicin,yes
same,Binding,[3]; cargo FAM-guanosine,yes
same,pKd,[3]; cargo FAM-guanosine,6.10
same,Binding,[3]; cargo porphyrin,yes
same,pKd,[3]; cargo porphyrin,6.96
same,Efficiency (uptake of Cy-5 labelled small peptide),HepG2 [4],48%
same,Efficiency (uptake of Cy-5 labelled small peptide),CEM-SS [5],87%
same,Efficiency (uptake of Cy-5 labelled small peptide),Jurkat [6],65%
same,Efficiency (uptake of Cy-5 labelled small peptide),MT4 [7],56%
same,Efficiency (uptake of Cy-5 labelled small peptide),HS-68 [8],67%
same,Efficiency (uptake of Cy-5 labelled small peptide),MCF7 [9],89%
same,Efficiency (uptake of Cy-5 labelled small peptide),U2OS [10],57%
same,Efficiency (uptake of Cy-5 labelled small peptide),Hela [11],60%
same,Efficiency (uptake of Cy-5 labelled PNA),STEM [12],88%
same,Efficiency (uptake of Cy-5 labelled PNA),C2C12 [13],69%
same,Efficiency (uptake of Cy-5 labelled PNA),MEF [14],74%
same,Efficiency (uptake of Cy-5 labelled PNA),HepG2 [15],71%
same,Efficiency (uptake of Cy-5 labelled PNA),CEM-SS [16],78%
same,Efficiency (uptake of Cy-5 labelled PNA),Jurkat [17],81%
same,Efficiency (uptake of Cy-5 labelled PNA),MT4 [18],67%
same,Efficiency (uptake of Cy-5 labelled PNA),HS-68 [19],71%
same,Efficiency (uptake of Cy-5 labelled PNA),MCF7 [20],83%
same,Efficiency (uptake of Cy-5 labelled PNA),U2OS [21],89%
same,Efficiency (uptake of Cy-5 labelled PNA),Hela [22],78%
same,Efficiency (uptake of Cy-5 labelled small peptide),STEM [23],76%
same,Efficiency (uptake of Cy-5 labelled small peptide),C2C12 [24],57%
same,Efficiency (uptake of Cy-5 labelled small peptide),MEF [25],75%
same,Binding,[26],Yes
same,pKd,[26],7.00 to 7.70
same,Binding,PNA (15 mer -PNA),Yes
same,pKd,PNA (15 mer -PNA),< 7.30
same,Binding,siRNA,yes
same,pKd,siRNA,< 6.70
same,Binding,Peptide (C4),yes
same,effect on cell cycle progression,cultured cells,no effect
